According to patent US10344019B2 (priority 2010, dated 2019):
Read-outs that look alike come from different tables or passages of the source.

What was measured:
Experiment in all cases: microbe, parasite or virus in culture
Format in all cases: cell-based
[1] = tested on: HCV 1a RLuc cells (dicistronic genotype 1a H77 replicon, RLuc reporter); conditions: Hepatitis C virus, read-out: 1a
Protocol: (§1) Evaluation of cell-based anti-HCV activity: Antiviral potency (EC50) was determined using a Renilla luciferase (RLuc)-based HCV replicon reporter assay. To perform the assay for genotype 1 and 2a JFH-1, HCV 1b RLuc cells (harboring a dicistronic genotype 1b Con1 replicon that encodes a RLuc reporter), or HCV 1a RLuc cells (harboring a dicistronic genotype 1a H77 replicon that encodes a RLuc reporter), or HCV 2a JFH-1 Rluc cells (harboring a dicistronic genotype 2a JFH-1 replicon that encodes a RLuc reporter) were dispensed into 384-well plates. To perform the assay for genotype 2a (with M31 present) or 2b, HCV 2a Rluc or 2b Rluc cells (both with M31 present) harboring a dicistronic NS5A chimeric genotype 2a JFH-1 replicon that encodes a RLuc reporter and either genotype 2a J6 strain NS5A gene or genotype 2b MD2b-1 NS5A gene (based on Los Alamos HCV database isolates, both with M31 present) respectively, were dispensed into 384-well plates. To perform the assay for genotype 3 and 4, HCV 3a RLuc or 4a Rluc cells harboring a dicistronic NS5A chimeric genotype 1b Con1 replicon that encodes a RLuc reporter and either a consensus genotype 3a NS5A gene or genotype 4a NS5A gene (based on Los Alamos HCV database isolates) respectively, were dispensed into 384-well plates. Compounds were re-suspended in DMSO at a concentration of 10 mM and serially diluted in DMSO either manually or using an automated pipeting instrument. Serially diluted compounds were mixed with cell culture media and added to the seeded cells. […] 72 hours later, cells were lysed and Renilla luciferase activity quantified as recommended by the manufacturer (Promega-Madison, Wis.). Non-linear regression was performed to calculate EC50 values.

[2] = tested on: HCV 4a Rluc cells (NS5A chimeric genotype 1b Con1 replicon with genotype 4a NS5A gene); conditions: Hepatitis C virus, read-out: 4a
Protocol: as §1

[3] = tested on: HCV 2a JFH-1 Rluc cells (dicistronic genotype 2a JFH-1 replicon, RLuc reporter); conditions: Hepatitis C virus, genotype 2a JFH-1 replicon, read-out: 2a JFH
Protocol: as §1

[4] = tested on: HCV 3a RLuc cells (NS5A chimeric genotype 1b Con1 replicon with consensus genotype 3a NS5A gene); conditions: Hepatitis C virus
Protocol: as §1

[5] = tested on: HCV 1b RLuc cells (dicistronic genotype 1b Con1 replicon, RLuc reporter); conditions: Hepatitis C virus, read-out: 1b (nM)
Protocol: as §1

[6] = read-out: 3a, genotype 3a replicon
[7] = genotype 1a H77 replicon, RLuc reporter
[8] = read-out: 3a, genotype 3a NS5A chimeric 1b Con1 replicon

SMILES	EC50 [2] [nM]	EC50 ([1]; genotype 1a replicon) [nM]	EC50 [3] [nM]	EC50 [4, 6] [nM]	EC50 [5] [nM]	EC50 [1, 7] [nM]	EC50 ([3]; RLuc reporter) [nM]	EC50 [4, 8] [nM]	other results
COC(=O)N[C@H](C(=O)N1CCC[C@H]1c1ncc(-c2ccc3c(c2)CCc2cc(-c4cnc([C@@H]5[C@H]6CC[C@H](C6)N5C(=O)[C@@H](NC(=O)OC)[C@@H](C)OC)[nH]4)ccc2-3)[nH]1)[C@@H](C)OC [Example 73]	0.001 to 0.99								EC50 ([1]; 72 h, Table 2, genotype 1a H77 replicon, 72 hours): 0.001 to 0.999 nM; EC50 ([3]; 72 h, Table 2, 72 hours): 0.001 to 0.999 nM; EC50 ([4]; read-out: 3a, Table 2, genotype 3a NS5A chimeric replicon): 1 to 4.99 nM; EC50 ([5]; 72 h): 0.038 nM
CC#Cc1cc(-c2cnc([C@@H]3CCCN3C(=O)[C@@H](NC(=O)OC)C(C)C)[nH]2)ccc1-c1ccc(-c2cnc([C@@H]3CCCN3C(=O)[C@H](NC(=O)OC)c3ccccc3)[nH]2)cc1 [Example 348]	0.001 to 0.99	0.001 to 0.999	0.001 to 0.999	0.001 to 0.99	0.011				
COC(=O)N[C@H](C(=O)N1CCC[C@H]1c1nc2ccc3cc(-c4ccc5cc(-c6cnc([C@@H]7COCCN7C(=O)[C@H](NC(=O)OC)c7ccccc7)[nH]6)ccc5c4)ccc3c2[nH]1)C(C)C [Example 216]	0.001 to 0.99				0.006	0.001 to 0.999	0.001 to 0.999	0.001 to 0.99	
COC(=O)N[C@H](C(=O)N1[C@@H]2CC[C@@H](C2)[C@H]1c1nc2ccc3cc(-c4ccc(-c5cnc([C@@H]6C[C@H]7C[C@H]7N6C(=O)[C@H](NC(=O)OC)c6ccccc6)[nH]5)cc4)ccc3c2[nH]1)C(C)C [Example 368]	0.001 to 0.99	0.001 to 0.999	0.001 to 0.999	0.001 to 0.99	0.012				
COC(=O)N[C@H](C(=O)N1CCC[C@H]1c1ncc(-c2ccc3c4ccc(-c5cnc([C@@H]6CCCN6C(=O)[C@@H](NC(=O)OC)C6CCOCC6)[nH]5)cc4c4ccccc4c3c2)[nH]1)C1CCOCC1 [Example 309]	0.001 to 0.99	0.001 to 0.999	0.001 to 0.999	0.001 to 0.99	0.219				
COC(=O)N[C@@H](C(=O)N1CCC[C@H]1c1ncc(-c2ccc3c(c2)COc2c-3ccc3cc(-c4cnc([C@@H]5CCCN5C(=O)OCc5ccccc5)[nH]4)ccc23)[nH]1)c1ccccc1 [Example 5]	0.001 to 0.99								EC50 ([1]; 72 h, Table 1, genotype 1a H77 replicon, 72 hours): > 44 nM; EC50 ([3]; 72 h, Table 1, 72 hours): 1 to 44 nM; EC50 ([4]; read-out: 3a, Table 1, genotype 3a NS5A chimeric replicon): 0.001 to 0.99 nM; EC50 ([5]; 72 h): 0.037 nM
COC(=O)N[C@H](C(=O)N1CCC[C@H]1c1ncc(-c2cc3c4c(c2)OCc2cc(-c5cnc([C@@H]6CCCN6C(=O)[C@@H](NC(=O)OC)[C@@H](C)OC)[nH]5)cc(c2-4)OC3)[nH]1)C(C)C [Example 313]	0.001 to 0.99	0.001 to 0.999	0.001 to 0.999	0.001 to 0.99	0.079				
COC(=O)N[C@@H](C)C(=O)N1CCC[C@H]1c1nc2c([nH]1)-c1ccc(-c3ccc4cc(-c5cnc([C@@H]6CCCN6C(=O)[C@H](NC(=O)OC)c6ccccc6)[nH]5)ccc4c3)cc1CC2 [Example 272]	1 to 4.99					> 44	> 44	> 5	
COC(=O)N[C@H](C(=O)N1CCC[C@H]1c1ncc(-c2ccc3cc(-c4ccc5c(c4)OCc4nc([C@@H]6CCCN6C(=O)[C@H](NC(=O)OC)c6ccccc6)[nH]c4-5)ccc3c2)[nH]1)C(C)C [Example 172]					0.011	0.001 to 0.999	0.001 to 0.999	0.001 to 0.99	
COC(=O)N[C@H](C(=O)N1CCC[C@H]1c1ncc(-c2ccc3cc(-c4ccc(-c5cnc([C@@H]6CCCN6C(=O)[C@H](NC(=O)OC)c6ccccc6C)[nH]5)cc4)ccc3c2)[nH]1)C(C)C [Example 150]					0.006	0.001 to 0.999	0.001 to 0.999	0.001 to 0.99	
COC(=O)N[C@H](C(=O)N1CCC[C@H]1c1ncc(-c2ccc3cc(-c4ccc(-c5cnc([C@@H]6CCCN6C(=O)[C@](C)(NC(=O)OC)c6ccccc6)[nH]5)cc4)ccc3c2)[nH]1)C(C)C [Example 162]					0.01	1 to 44	1 to 44	1 to 4.99	
